Measurements as given in BindingDB's records for doi:10.1016/j.bmcl.2009.09.123 (Genomics Institute of The Novartis Research Foundation, 2009).

Key:
[1] = Inhibition of Tel-fused LYN expressed in mouse BAF3 cells
[2] = Inhibition of Tel-fused LCK expressed in mouse BAF3 cells
[3] = Inhibition of Tel-fused SRC expressed in mouse BAF3 cells
[4] = Inhibition of Tel-fused KDR expressed in mouse BAF3 cells

Row | SMILES | IC50 [1] | IC50 [2] | IC50 [3] | IC50 [4]
1 | Cc1ccc(C(=O)Nc2cccc(C(F)(F)F)c2)cc1Nc1nc2ccccc2n1-c1cc(NCCN2CCN(C)CC2)ncn1 [4-methyl-3-(1-(6-(2-(4-methylpiperazin-1-yl)ethylamino)pyrimidin-4-yl)-1H-benzo[d]imidazol-2-ylamino)-N-(3-(trifluoromethyl)phenyl)benzamide] | 113 nM | 45 nM | 527 nM | 185 nM
2 | Cc1cccc(NC(=O)c2ccc(C)c(Nc3nc4ccccc4n3-c3cc(NCCN4CCN(C)CC4)ncn3)c2)c1 [4-methyl-3-(1-(6-(2-(4-methylpiperazin-1-yl)ethylamino)pyrimidin-4-yl)-1H-benzo[d]imidazol-2-ylamino)-N-m-tolylbenzamide] | 1660 nM | 762 nM | 1540 nM | 2090 nM
3 | Cc1ccc(C(=O)Nc2cccc(C(F)(F)F)c2)cc1Nc1nc2ccccc2n1-c1cc(NCCCN2CCN(C)CC2)ncn1 [4-methyl-3-(1-(6-(3-(4-methylpiperazin-1-yl)propylamino)pyrimidin-4-yl)-1H-benzo[d]imidazol-2-ylamino)-N-(3-(trifluoromethyl)phenyl)benzamide] | 84 nM | 23 nM | 364 nM | 117 nM
4 | Cc1cccc(NC(=O)c2ccc(C)c(Nc3nc4ccccc4n3-c3cc(NCCCN4CCN(C)CC4)ncn3)c2)c1 [4-methyl-3-(1-(6-(3-(4-methylpiperazin-1-yl)propylamino)pyrimidin-4-yl)-1H-benzo[d]imidazol-2-ylamino)-N-m-tolylbenzamide] | 1230 nM | 337 nM | 1410 nM | 1110 nM
5 | CCN(CC)CCNc1cc(-n2c(Nc3cc(NC(=O)c4cccc(C(F)(F)F)c4)ccc3C)nc3ccccc32)ncn1 [N-(3-(1-(6-(2-(diethylamino)ethylamino)pyrimidin-4-yl)-1H-benzo[d]imidazol-2-ylamino)-4-methylphenyl)-3-(trifluoromethyl)benzamide] | 642 nM | 418 nM | 398 nM | 1730 nM
6 | Cc1ccc(NC(=O)c2cccc(C(F)(F)F)c2)cc1Nc1nc2ccccc2n1-c1cc(NCCCCN(C)C)ncn1 [N-(3-(1-(6-(4-(dimethylamino)butylamino)pyrimidin-4-yl)-1H-benzo[d]imidazol-2-ylamino)-4-methylphenyl)-3-(trifluoromethyl)benzamide] | 399 nM | 108 nM | 1210 nM | 1360 nM
7 | Cc1ccc(NC(=O)c2cccc(C(F)(F)F)c2)cc1Nc1nc2ccccc2n1-c1cc(NCCCCN)ncn1 [N-(3-(1-(6-(4-aminobutylamino)pyrimidin-4-yl)-1H-benzo[d]imidazol-2-ylamino)-4-methylphenyl)-3-(trifluoromethyl)benzamide] | 457 nM | 366 nM | 1660 nM | 599 nM
8 | Cc1ccc(NC(=O)c2cccc(C(F)(F)F)c2)cc1Nc1nc2ccccc2n1-c1cc(N[C@H]2CC[C@H](N)CC2)ncn1 [N-(3-(1-(6-(trans-4-aminocyclohexylamino)pyrimidin-4-yl)-1H-benzo[d]imidazol-2-ylamino)-4-methylphenyl)-3-(trifluoromethyl)benzamide] | 547 nM | 392 nM | 739 nM | 609 nM

More lines, now with the values ahead:

Row | IC50 [1] | IC50 [2] | IC50 [3] | IC50 [4] | SMILES
9 | 1470 nM | 470 nM | 1290 nM | 1750 nM | Cc1ccc(NC(=O)c2cccc(C(F)(F)F)c2)cc1Nc1nc2ccccc2n1-c1cc(NCCN)ncn1 [N-(3-(1-(6-(2-aminoethylamino)pyrimidin-4-yl)-1H-benzo[d]imidazol-2-ylamino)-4-methylphenyl)-3-(trifluoromethyl)benzamide]
10 | 400 nM | 229 nM | 1700 nM | 590 nM | Cc1ccc(NC(=O)c2cccc(C(F)(F)F)c2)cc1Nc1nc2ccccc2n1-c1cc(NCCO)ncn1 [N-(3-(1-(6-(2-hydroxyethylamino)pyrimidin-4-yl)-1H-benzo[d]imidazol-2-ylamino)-4-methylphenyl)-3-(trifluoromethyl)benzamide]
11 | 1120 nM | 387 nM | 1320 nM | 1470 nM | Cc1ccc(NC(=O)c2cccc(C(F)(F)F)c2)cc1Nc1nc2ccccc2n1-c1cc(NCCCN)ncn1 [N-(3-(1-(6-(3-aminopropylamino)pyrimidin-4-yl)-1H-benzo[d]imidazol-2-ylamino)-4-methylphenyl)-3-(trifluoromethyl)benzamide]
12 | 88 nM | 18 nM | 249 nM | 63 nM | Cc1ccc(NC(=O)c2cc(CN3CCN(C)CC3)n(C(C)(C)C)n2)cc1Nc1nc2ccccc2n1-c1cc(N)ncn1 [N-(3-(1-(6-aminopyrimidin-4-yl)-1H-benzo[d]imidazol-2-ylamino)-4-methylphenyl)-1-tert-butyl-5-((4-methylpiperazin-1-yl)methyl)-1H-pyrazole-3-carboxamide]
13 | 3610 nM | 1070 nM | 9690 nM | 6360 nM | Cc1ccc(NC(=O)c2cc(Cl)cc(Cl)c2)cc1Nc1nc2ccccc2n1-c1cc(N)ncn1 [N-(3-(1-(6-aminopyrimidin-4-yl)-1H-benzo[d]imidazol-2-ylamino)-4-methylphenyl)-3,5-dichlorobenzamide]
14 | 5 nM | 7 nM | 39 nM | 66 nM | Cc1ccc(NC(=O)c2cc(OC3CCN(C)CC3)cc(C(F)(F)F)c2)cc1Nc1nc2ccccc2n1-c1cc(N)ncn1 [N-(3-(1-(6-aminopyrimidin-4-yl)-1H-benzo[d]imidazol-2-ylamino)-4-methylphenyl)-3-(1-methylpiperidin-4-yloxy)-5-(trifluoromethyl)benzamide]
15 | 9 nM | 4 nM | 57 nM | 5 nM | CCN1CCN(c2cc(C(=O)Nc3ccc(C)c(Nc4nc5ccccc5n4-c4cc(N)ncn4)c3)cc(C(F)(F)F)c2)CC1 [N-(3-(1-(6-aminopyrimidin-4-yl)-1H-benzo[d]imidazol-2-ylamino)-4-methylphenyl)-3-(4-ethylpiperazin-1-yl)-5-(trifluoromethyl)benzamide]
16 | 6 nM | 3 nM | 47 nM | 43 nM | Cc1ccc(NC(=O)c2cc(N3CCN(C)CC3)cc(C(F)(F)F)c2)cc1Nc1nc2ccccc2n1-c1cc(N)ncn1 [N-(3-(1-(6-aminopyrimidin-4-yl)-1H-benzo[d]imidazol-2-ylamino)-4-methylphenyl)-3-(4-methylpiperazin-1-yl)-5-(trifluoromethyl)benzamide]
17 | 14 nM | 7 nM | 78 nM | 36 nM | Cc1ccc(NC(=O)c2cccc(C(F)(F)F)c2)cc1Nc1nc2ccccc2n1-c1cc(N)ncn1 [N-(3-(1-(6-aminopyrimidin-4-yl)-1H-benzo[d]imidazol-2-ylamino)-4-methylphenyl)-3-(trifluoromethyl)benzamide]
18 | 10 nM | 5 nM | 47 nM | 30 nM | CCN1CCN(Cc2ccc(C(=O)Nc3ccc(C)c(Nc4nc5ccccc5n4-c4cc(N)ncn4)c3)cc2Cl)CC1 [N-(3-(1-(6-aminopyrimidin-4-yl)-1H-benzo[d]imidazol-2-ylamino)-4-methylphenyl)-3-chloro-4-((4-ethylpiperazin-1-yl)methyl)benzamide]
